Assay results: patent publication US10562848B2, “Inhibitors of TNF superfamily costimulatory interactions and methods for uses of the same” (UNIVERSITY OF MIAMI, priority 2015, dated 2020)
Like-named read-outs stand apart in the source and are kept apart here.

Assays:
[1] = biological target: T1, OX40-OX40L (Homo sapiens, UniProt P23510+P43489); test: Cell-free ELISA-type OX40 binding inhibition assay; details: Table 2
T1 sequence (P43489 29-214 limits assumed): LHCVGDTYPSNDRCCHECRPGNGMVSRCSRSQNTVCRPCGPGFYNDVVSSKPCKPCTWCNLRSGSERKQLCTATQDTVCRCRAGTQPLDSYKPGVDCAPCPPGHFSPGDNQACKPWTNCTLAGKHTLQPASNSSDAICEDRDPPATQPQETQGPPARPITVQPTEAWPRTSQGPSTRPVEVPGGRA
T1 sequence (P23510 51-183 limits assumed): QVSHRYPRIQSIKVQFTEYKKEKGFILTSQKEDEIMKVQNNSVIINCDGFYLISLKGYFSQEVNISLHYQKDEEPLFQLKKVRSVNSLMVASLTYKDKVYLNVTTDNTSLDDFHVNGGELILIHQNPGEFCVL
Procedure: (§1) Typical concentrations used were as follows—receptors: 0.3 μg/mL for CD40, TNF-R1, and RANK; 0.6 μg/mL for BAFF-R, OX40, and 4-1BB; and 2 μg/mL for EGF-R-ligands: 0.02 μg/mL for CD40L, TNFα, and RANKL; 0.2 μg/ml for BAFF, OX40L, 4-1BBL; and 0.3 μg/mL for EGF. Assays were done in duplicate or triplicate per plate and repeated at least three times; the averaged data were normalized and used for data fitting and analysis. Binding data were fitted using the standard log inhibitor versus response model in GraphPad Prism to determine the corresponding IC50 values.

[2] = biological target: T2, human CD40-CD40L (Homo sapiens, UniProt P29965); test: Cell-free ELISA-type CD40-CD40L binding inhibition assay
T2 construct: purchased Enzo Life Sciences (San Diego, Calif.)
T2 sequence (P29965 116-261 limits assumed): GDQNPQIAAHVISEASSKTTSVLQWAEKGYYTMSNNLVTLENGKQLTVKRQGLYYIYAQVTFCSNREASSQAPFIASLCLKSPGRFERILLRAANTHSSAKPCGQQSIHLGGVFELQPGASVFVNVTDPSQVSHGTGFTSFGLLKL
Procedure: Compounds according to the disclosure were assessed for their ability to inhibit the binding of tagged ligands to plate-bound receptors using ELISA-type 96-well plate-based cell-free assays as described in the literature (see Margolles-Clark et al, J Mol Med 87:1133-1143 (2009); Margolles-Clark et al., Chem Biol Drug Des 76:305-313 (2010); Song et al., Br J Pharmacol 171:4955-4969 (2014); and Ganesan et al., Biochem Pharmacol 81:810-818 (2011)).
Recombinant receptors (hCD40:Fc, TNF-R1:Fc) and tagged ligands (hCD154, MegaCD40L, and TNF-α), were obtained from Enzo Life Sciences (San Diego, Calif.). Microtiter plates (Nunc F Maxisorp; 96-well) were coated overnight at 4° C. with 100 μL/well of Fc chimeric receptors diluted in PBS 7.2. This was followed by blocking with 200 μL/well of blocking solution (PBS 7.2, 0.05% Tween-20, 1% BSA) for 1 hour at room temperature. […] Either anti-FLAG-HRP or streptavidin-HRP conjugate was used to detect the bound FLAG-tagged or biotinylated ligand, respectively. Plates were washed three times before the addition of 120 μL/well of HRP substrate TMB (3, 3′, 5, 5′-tetramethylbenzidine) and kept in the dark for 15-30 min. The reaction was stopped using 30 μL 1M H2SO4, and the absorbance was read at 450 nm. Stock solutions of compounds at 10 mM in DMSO were used.
as §1

[3] = test system: CD40L-induced NF-κB activation in CD40 sensor cells (HEK Blue); test: Inhibition of CD40L-induced NF-κB activation in CD40 sensor cells (HEK-Blue); type: cell-based, human; details: CD40L 20 ng/mL, 18 h
Excerpt: Activities of the compounds of the disclosure were confirmed in cell-based assays. As a first example, TNF-R1 and CD40 expressing sensor cells (HEK-Blue; InvivoGen, San Diego, Calif.) were used as described in the literature (see Song et al., Br J Pharmacol 171:4955-4969 (2014) and Cechin et al., Steroids 85:36-43 (2014)).
Cells were maintained in DMEM at 80% confluence for each experiment. Cells were trypsinized and re-suspended in the same medium with 1% FBS and seeded on 96-well microtiter plates at a density of 1×10^5 cells/well in the absence and presence of various concentrations of compounds diluted in the same media. For ligand mediated stimulation, final concentrations of recombinant human TNFα (2 ng/mL) and CD40L (20 ng/mL) were maintained in the wells for this purpose. After 18-hour incubation at 37° C., 20 μL supernatant of each well were taken and added to another 96-well microtiter plate containing 180 μL/well of QUANTI-Blue (InvivoGen, CA). The level of SEAP was determined after 30-minute incubation at 37° C. by reading at 625 nm using a spectrophotometer. […] Data are average±SD (normalized to CD40L-activated cells alone) for n=4 independent experiments with duplicates for each condition.

[4] = test system: TNFSF costimulatory interactions; details: literature; cited from earlier work
[5] = test system: CD40L-induced proliferation of human CD19+ B cells; test: Inhibition of CD40L-induced human CD19+ B-cell proliferation (BrdU); type: cell-based
Procedure: Because CD40 stimulation is an important signal for B cell proliferation, soluble CD40L can concentration-dependently induce the proliferation of human B cells.
Inhibition of cell proliferation was determined in freshly isolated human CD19^+ B cells using the colorimetric cell proliferation ELISA BrdU kit from Roche Applied Science (Indianapolis, Ind.). B cells were isolated from the PBMC as follows. Briefly, cells were washed three times with medium (RPMI 1640) and incubated for 20 min at 4° C. with 20 μL/10^7 cells of anti-CD19 Microbeads (Miltenyi Biotech, Bergisch Gladbach, Germany), according to the MiniMacs protocol (Miltenyi Biotech). Cells were then purified using magnetic columns. […] Cells were cultured in 96 wells plates (100 μL/well) at a cell density of 2×10^5 cells/mL in IMDM medium supplemented with 5% FBS, 100 U/mL penicillin, streptomycin 100 μg/mL, insulin-transferrin-selenium-G (all materials from Invitrogen, San Diego, Calif.) and 10 […] (R&D Systems). […] After 48 h, BrdU labeling solution was added as recommended, and cells were cultivated for another 48 h. Detection of incorporated BrdU was carried out following the instructions of the ELISA BrdU kit.
Data are average±SD for n=3 independent experiments with triplicates for each condition using a standard BrdU assay (Roche).

Compound | IC50 [1] [µM] | IC50 ([2]; IC50 CD40, Table 2) [nM] | inhibition of human CD40-CD40L binding (in words) ([2]; cell-free binding) | activity of other small molecule inhibitors (in words) [4] | other results
Nc1ccc(C(=O)Nc2ccc(-c3ccc(C(=O)Nc4cccc5cccc(S(=O)(=O)O)c45)cc3)cc2)cc1 [Compound 21042] | 12.8 | 301000 | concentration-dependent inhibition |  | 
O=C(Nc1ccc(-c2ccc(C(=O)Nc3cccc4cccc(S(=O)(=O)O)c34)cc2)cc1)c1ccc2[nH]nnc2c1 [Compound 21080] | 26.3 | 1000 | concentration-dependent inhibition |  | 
COC(=O)c1cccc2c(NC(=O)c3ccc(-c4ccc(NC(=O)c5ccc([N+](=O)[O-])cc5)cc4)cc3)cccc12 [Compound 24541] | 6560 |  |  |  | IC50 ([2]; Table 2, read-out: IC50 CD40): 916000 nM
O=C(Nc1ccc(-c2ccc(C(=O)Nc3ccc(S(=O)(=O)O)c4ccccc34)cc2)cc1)c1ccc([N+](=O)[O-])cc1 [Compound 25041] | 7 | 2300 | concentration-dependent inhibition |  | 
O=C(Nc1ccc2c(O)c(N=Nc3ccc(N=Nc4ccc(S(=O)(=O)[O-])cc4)cc3S(=O)(=O)[O-])c(S(=O)(=O)[O-])cc2c1)Nc1ccc2c(O)c(N=Nc3ccc(N=Nc4ccc(S(=O)(=O)[O-])cc4)cc3S(=O)(=O)[O-])c(S(=O)(=O)[O-])cc2c1.[Na+].[Na+].[Na+].[Na+].[Na+].[Na+] [DR80, direct red 80, reference compound] |  |  |  | active in the low μM range | IC50 [3]: 42.7 µM; IC50 ([2]; cell-free binding, n=3 independent experiments, read-out: IC50, inhibition of the CD40-CD40L interaction): 2260 nM
O=C([O-])C1=NN(c2ccc(S(=O)(=O)[O-])cc2)C(=O)C1N=Nc1ccc(S(=O)(=O)[O-])cc1.[Na+].[Na+].[Na+] (stereo not shown) [Tartrazine, reference compound] |  |  | inactive |  | inhibition of CD40L-induced human CD19+ B-cell proliferation (in words) [5]: no proliferation inhibiting activity
Nc1ccc2cc(S(=O)(=O)[O-])cc(O)c2c1N=Nc1ccc(-c2ccc(N=Nc3c(N)ccc4cc(S(=O)(=O)[O-])cc(O)c34)cc2)cc1.[Na+].[Na+] [chlorazol violet N] |  |  |  | active in the low μM range | 
Cc1cc(S(=O)(=O)[O-])ccc1N=Nc1ccc(N=Nc2c(O)ccc3cccc(S(=O)(=O)[O-])c23)c(C)c1.[Na+].[Na+] [crocein scarlet 7B] |  |  |  | active in the low μM range | 
mordant brown |  |  |  | active in the low μM range | 
